Patent US11518754B2, “Radiolabeled pharmaceuticals and methods of making and using same” (YALE UNIVERSITY, priority 2017, dated 2022)
Read-outs that look alike come from different tables or passages of the source. Blank lines part the entries; values can stand above or below the molecule they belong to.

Assays:
SV2A [1] = molecular target: SV2A (Rattus norvegicus (Rat), UniProt Q02563)
Description: One Sprague Dawley rat was euthanized with carbon dioxide inhalation. The brain was harvested, rapidly frozen on dry ice and then stored at −80° C. The whole brain homogenates were obtained following published procedures. The final homogenate was suspended in 20 mM Tris-HCl buffer (pH 7.4) containing 250 mM of sucrose at a wet tissue concentration of 100 mg/mL and stored at −80° C. until use.
For competition binding experiments, 0.5 mg of the rat brain homogenates in 800 μL of binding buffer (2 mM MgCl2 in 50 mM Tris*HCl, pH=7.4) were incubated on a thermoshaker at 37° C. for 30 min with 100 μL (R)-^11C-3 or (R)-^18F-11 and 100 μL of the compound over a range of concentrations (from 0.1 to 100 nM). Nonspecific binding was defined as the residual binding observed in the presence of 1 mM levetiracetam (100 μL). At completion of the incubation period, the membrane-bound radioligand was recovered using rapid filtration through GF/B glass fiber filters (13 mm GD/X, Whatman Inc.) which were pre-soaked for at least 30 min in 0.5% polyethyleneimine (PEI). The membranes were washed twice with 1 mL of ice-cooled binding buffer. The binding mixtures, filters and filtrates were counted using cross-calibrated gamma counters (1480 & 2480 WIZARD; Perkin-Elmer). Values of IC50 were calculated using the [sequence] PRISM™ software and converted to inhibition constants (Ki) by the Cheng-Prusoff equation.

SV2A [2] = molecular target: SV2A (Macaca mulatta, UniProt H9EQH8); experiment: PET imaging studies in rhesus monkeys; conditions: for blocking of radiotracer specific binding to SV2A: levetiracetam 30 mg/kg i.v. or UCB-J 150 μg/kg i.v. before radiotracer injection; for Binding potential (BPND): from VT, centrum semiovale as reference region; for Displacement of radiotracer binding by levetiracetam: levetiracetam 30 mg/kg i.v. infused 60 or 90 min post injection of the radiotracer; for time to SUV peak in gray matter regions: rhesus monkey, in vivo, iv
Description: Experiments were performed in rhesus monkeys (Macaca mulatta). Rhesus monkeys were sedated using intramuscular (i.m.) injection of ketamine and glycopyrrolate approximately 2 hours before the PET scan and anesthesia was maintained with isoflurane (1.5%-2.5%) for the duration of the experiments. Baseline PET scans were obtained after intravenous (i.v.) injection of ^11C-3, ^18F-3, ^18F-4, ^18F-5, ^18F-10, ^18F-11, or ^18F-12.
Arterial blood samples were collected during the PET scans to calculate the plasma input function and to determine the unmetabolized parent fraction using the automatic column-switching HPLC system. Plasma free fraction (fp) was measured in triplicate using the ultrafiltration method.
PET scans of the brain were acquired using the FOCUS 220 PET scanner (Siemens Preclinical Solutions) with a reconstructed image resolution of approximately 1.5 mm. After a transmission scan, the radioligand was injected i.v. as a 3 min slow bolus by an infusion pump (PHD 22/2000; Harvard Apparatus). List-mode data were acquired for 120-180 min and binned into sinograms with an applicable number of frames. Scan data were reconstructed with a Fourier rebinning/filtered backprojection algorithm with corrections for attenuation, scanner normalization, radiation scatter, and randoms. Regions of interest were manually delineated on a single representative anatomic rhesus monkey MR image registered to a template image. The regions used in this study were amygdala, brain stem, caudate, centrum semiovale, cerebellum, cingulate cortex, frontal cortex, globus pallidus, insular cortex, nucleus accumbens, occipital cortex, pons, putamen, temporal cortex, and thalamus. Registration parameters were obtained to apply the regions of interest to individual PET scans, and regional time-activity curves were generated. Regional time-activity curves of the brain were analyzed with the 1-tissue-(1T) compartment model. Fit quality was compared with the 2-tissue model and the multilinear analysis method to calculate VT.
Typical injected radioactivity amount was 0.5-5 mCi per injection, with typical injected mass amount of 1-10 μg.
Specific binding to SV2A was further examined for ^11C-3, ^18F-3, and ^18F-11 in blocking studies, where levetiracetam or UCB-J ((R)-3) was i.v. infused before injection of the radiotracers.

[3] = Plasma free fraction (fp) by ultrafiltration method; type: in vitro ADME, rhesus monkeys (Macaca mulatta); conditions: plasma (from arterial blood samples), rhesus monkey plasma
[4] = converted from IC50 by the Cheng-Prusoff equation
[5] = rat brain homogenates, radioligand (R)-11C-3 or (R)-18F-11, 37° C., 30 min
[6] = IC50, rat brain homogenates, radioligand (R)-11C-3 or (R)-18F-11, 37° C., 30 min
[7] = Ki, converted from IC50 by the Cheng-Prusoff equation

SV2A (Rattus norvegicus (Rat), UniProt Q02563), sequence (Q02563 whole entry, the tested form may be a part): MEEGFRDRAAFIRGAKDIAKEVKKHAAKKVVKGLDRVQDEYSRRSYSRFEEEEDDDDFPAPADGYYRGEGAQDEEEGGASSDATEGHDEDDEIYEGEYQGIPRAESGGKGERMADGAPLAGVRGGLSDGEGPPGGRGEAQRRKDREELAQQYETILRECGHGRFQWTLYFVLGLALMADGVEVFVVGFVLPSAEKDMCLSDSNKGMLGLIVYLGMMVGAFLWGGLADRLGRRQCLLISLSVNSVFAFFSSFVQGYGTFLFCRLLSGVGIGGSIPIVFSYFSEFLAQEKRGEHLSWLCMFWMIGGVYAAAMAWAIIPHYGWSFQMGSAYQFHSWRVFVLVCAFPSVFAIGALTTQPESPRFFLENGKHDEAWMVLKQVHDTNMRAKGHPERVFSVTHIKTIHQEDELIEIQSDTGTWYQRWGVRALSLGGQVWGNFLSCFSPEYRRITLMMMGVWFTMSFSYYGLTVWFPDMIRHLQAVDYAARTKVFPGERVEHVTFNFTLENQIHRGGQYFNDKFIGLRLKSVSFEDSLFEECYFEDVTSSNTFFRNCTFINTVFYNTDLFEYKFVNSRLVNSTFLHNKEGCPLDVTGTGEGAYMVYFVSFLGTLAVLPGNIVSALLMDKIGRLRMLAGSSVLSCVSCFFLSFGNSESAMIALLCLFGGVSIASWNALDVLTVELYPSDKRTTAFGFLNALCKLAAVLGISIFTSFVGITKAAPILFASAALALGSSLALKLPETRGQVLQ
SV2A (Macaca mulatta, UniProt H9EQH8), sequence (H9EQH8 1-742): as the sequence (Q02563 whole entry, the tested form may be a part) above, with E53D, A62S, G64S, A71T, D144E, T154A, S440G, A482S, L634M counted along it

SMILES: Cc1cnccc1CN1CC(c2cccc(F)c2)CC1=O (single isomer, unassigned) [(S)-11, 4-(3-Fluorophenyl)-1-((3-methylpyridin-4-yl)methyl)pyrrolidin-2-one]
IC50 (SV2A [1]; [6]): 109 nM
Ki (SV2A [1]; [7]): 18.2 nM

SMILES: Cc1cnccc1CN1CC(c2cc(F)c(F)c(F)c2)CC1=O (single isomer, unassigned) [(R)-3, 1-((3-methylpyridin-4-yl)methyl)-4-(3,4,5-trifluorophenyl) pyrrolidin-2-one]
blocking of radiotracer specific binding to SV2A (SV2A [2]): blocking of specific binding
IC50 (SV2A [1]; [6]): 1.62 nM
Ki (SV2A [1]; [7]): 0.27 nM

SMILES: Cc1cnccc1CN1CC(c2ccc(F)c(F)c2)CC1=O (single isomer, unassigned) [(R)-4, 4-(3,4-difluorophenyl)-1-((3-methylpyridin-4-yl)methyl)pyrrolidin-2-one]
IC50 (SV2A [1]): 12.6 nM
Ki (SV2A [1]): 2.08 nM

SMILES: Cc1cnccc1CN1C[C@H](c2cc(F)c(F)c(F)c2)CC1=O (single isomer, unassigned) [(S)-3, 1-((3-methylpyridin-4-yl)methyl)-4-(3,4,5-trifluorophenyl) pyrrolidin-2-one]
Ki (SV2A [1]; [4]): 12.5 nM
IC50 (SV2A [1]; [5]): 75.6 nM

SMILES: Cc1cnccc1CN1CC(c2cc(F)c(F)c(F)c2)CC1=O (centres unmarked) [^18F-3, 1-((3-methylpyridin-4-yl)methyl)-4-(3,4,5-trifluorophenyl) pyrrolidin-2-one]
Binding potential (BPND) (SV2A [2]; Amygdala): 1.65 ± 1.04
Binding potential (BPND) (SV2A [2]; Brainstem): 0.84 ± 0.28
Binding potential (BPND) (SV2A [2]; Caudate nucleus): 2.54 ± 0.60
Binding potential (BPND) (SV2A [2]; Cerebellum): 1.88 ± 0.42
Binding potential (BPND) (SV2A [2]; Cingulate cortex): 4.04 ± 0.38
Binding potential (BPND) (SV2A [2]; Frontal cortex): 3.90 ± 0.54
Binding potential (BPND) (SV2A [2]; Globus pallidus): 1.08 ± 0.59
Binding potential (BPND) (SV2A [2]; Hippocampus): 1.99 ± 0.75
Binding potential (BPND) (SV2A [2]; Insular cortex): 3.51 ± 0.56
Binding potential (BPND) (SV2A [2]; Nucleus accumbens): 3.85 ± 0.57
Binding potential (BPND) (SV2A [2]; Occipital cortex): 3.35 ± 0.27
Binding potential (BPND) (SV2A [2]; Pons): 0.80 ± 0.26
Binding potential (BPND) (SV2A [2]; Putamen): 2.62 ± 0.46
Binding potential (BPND) (SV2A [2]; Temporal cortex): 3.14 ± 0.41
Binding potential (BPND) (SV2A [2]; Thalamus): 2.53 ± 1.18
Displacement of radiotracer binding by levetiracetam (SV2A [2]): reduced the binding of these tracers to a significant extent
Uptake of radiotracer in blocking studies (SV2A [2]; levetiracetam (30 mg/kg) or UCB-J (150 μg/kg) i.v. 10 min before radiotracer injection): reduced to background levels
time to SUV peak in gray matter regions (SV2A [2]): slower
fraction unbound [3]: 0.42 ± 0.06

SMILES: Cc1cnccc1CN1CC(c2cccc(F)c2)CC1=O (single isomer, unassigned) [(R)-11, 4-(3-Fluorophenyl)-1-((3-methylpyridin-4-yl)methyl)pyrrolidin-2-one]
IC50 (SV2A [1]; [6]): 26.9 nM
Ki (SV2A [1]; [7]): 4.44 nM

Continued, in another order:

Ki (SV2A [1]; [4]): 4.43 nM
IC50 (SV2A [1]; [5]): 26.8 nM
SMILES: O=C1C[C@H](c2cccc(F)c2)CN1Cc1ccncc1 (single isomer, unassigned) [(R)-12, 4-(3-Fluorophenyl)-1-(pyridin-4-ylmethyl)pyrrolidin-2-one]

Ki (SV2A [1]; [4]): 0.58 nM
IC50 (SV2A [1]; [5]): 3.52 nM
SMILES: Cc1cnccc1CN1C[C@@H](c2cc(F)cc(F)c2)CC1=O (single isomer, unassigned) [Compound (R)-5, 4-(3,5-Difluorophenyl)-1-((3-methylpyridin-4-yl)methyl)pyrrolidin-2-one]

IC50 (SV2A [1]): 28.2 nM
Ki (SV2A [1]): 4.66 nM
SMILES: O=C1CC(c2cccc(F)c2)CN1Cc1ccncc1 (single isomer, unassigned) [(S)-12, 4-(3-Fluorophenyl)-1-(pyridin-4-ylmethyl)pyrrolidin-2-one]

Binding potential (BPND) (SV2A [2]; Amygdala): 0.66
Binding potential (BPND) (SV2A [2]; Brainstem): 0.75
Binding potential (BPND) (SV2A [2]; Caudate nucleus): 1.72
Binding potential (BPND) (SV2A [2]; Cerebellum): 0.55
Binding potential (BPND) (SV2A [2]; Cingulate cortex): 2.60
Binding potential (BPND) (SV2A [2]; Frontal cortex): 2.51
Binding potential (BPND) (SV2A [2]; Globus pallidus): 0.95
Binding potential (BPND) (SV2A [2]; Hippocampus): 1.35
Binding potential (BPND) (SV2A [2]; Insular cortex): 2.41
Binding potential (BPND) (SV2A [2]; Nucleus accumbens): 2.47
Binding potential (BPND) (SV2A [2]; Occipital cortex): 2.30
Binding potential (BPND) (SV2A [2]; Pons): 0.73
Binding potential (BPND) (SV2A [2]; Putamen): 1.86
Binding potential (BPND) (SV2A [2]; Temporal cortex): 2.21
Binding potential (BPND) (SV2A [2]; Thalamus): 1.65
time to SUV peak in gray matter regions (SV2A [2]): ≤ 10 min
fraction unbound [3]: 0.41
SMILES: Cc1cnccc1CN1CC(c2ccc(F)c(F)c2)CC1=O (centres unmarked) [^18F-4, 4-(3,4-difluorophenyl)-1-((3-methylpyridin-4-yl)methyl)pyrrolidin-2-one]
Displacement of radiotracer binding by levetiracetam (SV2A [2]): reduced the binding of these tracers to a significant extent

blocking of radiotracer specific binding to SV2A (SV2A [2]): blocking of specific binding
SMILES: CC[C@@H](C(N)=O)N1CCCC1=O [levetiracetam, reference compound]

Binding potential (BPND) (SV2A [2]; Amygdala): 0.04
Binding potential (BPND) (SV2A [2]; Brainstem): −0.06
Binding potential (BPND) (SV2A [2]; Caudate nucleus): 0.75
Binding potential (BPND) (SV2A [2]; Cerebellum): 0.25
Binding potential (BPND) (SV2A [2]; Cingulate cortex): 1.45
Binding potential (BPND) (SV2A [2]; Frontal cortex): 1.28
Binding potential (BPND) (SV2A [2]; Globus pallidus): 0.29
Binding potential (BPND) (SV2A [2]; Hippocampus): 0.44
Binding potential (BPND) (SV2A [2]; Insular cortex): 1.09
Binding potential (BPND) (SV2A [2]; Nucleus accumbens): 1.18
Binding potential (BPND) (SV2A [2]; Occipital cortex): 0.90
Binding potential (BPND) (SV2A [2]; Pons): −0.09
Binding potential (BPND) (SV2A [2]; Putamen): 0.86
Binding potential (BPND) (SV2A [2]; Temporal cortex): 0.95
Binding potential (BPND) (SV2A [2]; Thalamus): 0.42
time to SUV peak in gray matter regions (SV2A [2]): ≤ 10 min
fraction unbound [3]: 0.61
SMILES: O=C1CC(c2cccc(F)c2)CN1Cc1ccncc1 (centres unmarked) [^18F-12, 4-(3-Fluorophenyl)-1-(pyridin-4-ylmethyl)pyrrolidin-2-one]
Displacement of radiotracer binding by levetiracetam (SV2A [2]): reduced the binding of these tracers to a significant extent

Ki (SV2A [1]; [4]): 9.43 nM
IC50 (SV2A [1]; [5]): 57 nM
SMILES: Cc1cnccc1CN1C[C@H](c2ccc(F)c(F)c2)CC1=O (single isomer, unassigned) [(S)-4, 4-(3,4-difluorophenyl)-1-((3-methylpyridin-4-yl)methyl)pyrrolidin-2-one]

Ki (SV2A [1]; [4]): 115 nM
IC50 (SV2A [1]; [5]): 698 nM
SMILES: Cc1cnccc1CN1C[C@H](c2cc(F)cc(F)c2)CC1=O (single isomer, unassigned) [(S)-5, 4-(3,5-Difluorophenyl)-1-((3-methylpyridin-4-yl)methyl)pyrrolidin-2-one]
